The record followed here is patent publication US6608003B2, “Herbicidal solutions comprising fatty acid ammonium salts and dicarboxylic acid diesters and methods of using the same” (Falcon Lab LLC, priority 2000, dated 2003).

Series [1] is described as follows: Solubility of the diester in 40% aqueous ammonium pelargonate solution. It is filed as physicochemical. The settings on record: for amount of ester that dissolves in 100 g of 40% ammonium pelargonate to give a clear composition: 22 deg, successive additions of 99% ester; for dissolved diester content of the clear aqueous ammonium pelargonate composition: by weight, 40% (saturated) ammonium pelargonate solution. The procedure: A 40% solution of ammonium pelargonate was prepared by slowly adding 33 g. of 28% ammonium hydroxide to a stirred mixture of 89.3 g. of nonanoic acid (commercial pelargonic acid from Cognis Corp.) and 124.3 g. of distilled water.
To 361 gm. (2.29 mole) of technical pelargonic acid was added slowly with stirring a solution of 139 gm. of 28% ammonium hydroxide (2.29 mole NH3) in 500 ml. of deionized water.
A 40% solution of ammonium pelargonate was prepared by slowly adding 33 g. of 28% ammonium hydroxide to a stirred mixture of 89.3 g. of nonanoic acid (commercial pelargonic acid from Cognis Corp.) and 124.3 g. of distilled water. […]

The nature of the next series: Solubility in water. It is filed as physicochemical.

`COC(=O)CCCCCC(=O)OC` [dimethyl pimelate, Dimethyl pimelate]: in series [1], the “amount of ester that dissolves in 100 g of 40% ammonium pelargonate to give a clear composition” value stood at 22.5 g and the “dissolved diester content of the clear aqueous ammonium pelargonate composition” value is reported as 17.9%. Moreover, in the series “Solubility in water”, the “solubility in water (in words)” value is “insoluble in water”.

`COC(=O)CCCCCCC(=O)OC` [dimethyl suberate, Dimethyl suberate]: in series [1], the “amount of ester that dissolves in 100 g of 40% ammonium pelargonate to give a clear composition” value was found to be 19.3 g and the “dissolved diester content of the clear aqueous ammonium pelargonate composition” value came out at 16.2%. Besides, the “solubility in water (in words)” value in “Solubility in water” was “insoluble in water”.
